One block for each molecule: values may come before it.
Key:
MV4-11 cells = assay: Inhibition of proliferation of MV4-11 cells (CellTiter-Glo); format: cell-based; settings: Homo sapiens, 72 h
Description: Specific experimental steps: 1) Day 0: 96 inoculated cells were digested with trypsin and suspended in cell culture medium, the cell density was detected by an automatic cell counter and the cells were diluted with the culture medium to a suitable density, 100 μL of cell suspension was added to the 96-well plate, and the cell-free medium was used as a control well, and the wells were incubated in a 37° C., 5% CO2 cell incubator overnight; 2) Day 1: A total of 8 concentrations of the compound to be tested in the drug-treated cells were tested at 3-fold dilution, 10 μM was the starting assay concentration of the compound to be tested. Specific steps: 200× compound mother liquor was prepared, the compound was diluted with culture medium to a final concentration of […], that is, 3 μL of 200× compound was added to 197 μL of culture medium, 50 μL diluted compound was added to each well of the 96-well plate, and placed at 37° C., 5% CO2 cell culture incubator for 72 h; 3) Day 4: Cell viability detection: 96-well cell plate was first equilibrated to room temperature, 40 μL of CellTiter-Glo® reagent was added to each well, mixed on a shaker for 2 minutes to fully lyse the cells, incubated at room temperature for 10 minutes to stabilize the luminescence signal, and the luminescence value was read by the Envision microplate reader; 4) data processing was performed by GraphPad Prism 5.0 software to analyze the data, and nonlinear S-curve regression was used to fit the data to obtain a dose-effect curve, and from which the ICso value was calculated. Inhibition rate %=(DMSO treated cell wells−compound treated cell wells)/(DMSO treated cell wells−cell free medium wells)×100. The ICso value was obtained by the four-parameter regression method using the random software in the microplate reader. (See Table 2 for specific values)

BRD4-BD2 = target: T1, BRD4-BD2 (Homo sapiens, UniProt O60885); assay: BRD4 AlphaScreen determination (BD2); format: binding; settings: AlphaScreen, protein binding inhibition; read-out: BRD4-BD2 IC50
T1 construct: purchased ReactionBiologyCorp; (RBC)
Description: (§1) (1) 1× Assay buffer was prepared according to the kit requirements of ReactionBiologyCorp. (RBC). (2) Compound concentration gradient preparation: the test compounds were tested at final concentrations starting at 10 μM, with 10 concentrations at 3-fold dilution and single well test was set for each concentration. The positive control compound(+)-JQ-1 was tested at final concentrations starting at 1 μM, with 10 concentrations at 3-fold dilution, and duplicated well test was set for each concentration. The solution was gradient diluted to the corresponding 1000-fold final concentration in a 384-well Source plate, and then 20 nL of the solution was transferred to the 384-well reaction plate with Echo550 to be measured. 20 nL of 100% DMSO was transferred to the Max well, and the highest concentration of the positive compounds were transferred to the Min wells. […] (6) 5 μL of 4× peptide solution was added to each well of the reaction plate, centrifuged at 1000 rpm for 1 min. (7) 10 μL of the assay solution was added, centrifuged at 1000 rpm for 60 seconds, the solution was mixed with gentle shaking, and incubated at room temperature for 60 minutes. (8) Reading with EnVision. (9) The IC50 values of the compounds for protein binding inhibition was obtained by fitting the dose-effect curve with the analytical software GraphPad Prism 5. (See Table 1 for specific values)

BRD4-BD1 = target: T2, BRD4-BD1 (Homo sapiens, UniProt O60885); assay: BRD4 AlphaScreen determination (BD1); format: binding; settings: AlphaScreen, protein binding inhibition; read-out: BRD4-BD1 IC50
T2 construct: purchased ReactionBiologyCorp; (RBC)
Description: as §1

Compound: CN1C(=O)C(C)(C)Oc2c(-c3cn(C)c(=O)c4cc(C(=O)NCCOCCOCCOCCC(=O)Nc5cccc6c5C(=O)N(C5CCC(=O)NC5=O)C6=O)[nH]c34)cc(S(C)(=O)=O)cc21 (centres unmarked) [Embodiment 7, N-(2-(2-(2-(3-((2-(2,6-dioxopiperidin-3-yl)-1,3-dioxoisoindolin-4-yl)amino)-3-oxo-n-propoxy)ethoxy)ethoxy)ethyl)-5-methyl-4-oxo-7-(2,2,4-trimethyl-6-(methylsulfonyl)-3-oxo-3,4-dihydro-2H-benzo[b] [1,4]oxazin-8-yl)-4,5-dihydro-1H-pyrrolo[3,2-c]pyridine-2-amide]
IC50 (MV4-11 cells): < 1.5 nM

Compound: Cc1cc(F)cc(C)c1Oc1ccc(C(C)(C)O)cc1-c1cn(C)c(=O)c2cc(C(=O)NCCCCCc3cccc4c3CN(C3CCC(=O)NC3=O)C4=O)[nH]c12 (centres unmarked) [Embodiment 4, N-(5-(2-(2,6-dioxopiperidin-3-yl)-1-oxoisoindolin-4-yl)pentyl)-7-(2-(4-fluoro-2,6-dimethylphenoxy)-5-(2-hydroxyprop-2-yl)phenyl)-5-methyl-4-oxo-4,5-dihydro-1H-pyrrolo[3,2-c]pyridine-2-amide]
IC50 (MV4-11 cells): < 1.5 nM

Compound: Cc1cc(F)cc(C)c1Oc1ccc(C(C)(C)O)cc1-c1cn(C)c(=O)c2cc(C(=O)NCCCCNC(=O)COc3cccc4c3C(=O)N(C3CCC(=O)NC3=O)C4=O)[nH]c12 (centres unmarked) [Embodiment 5, N-(4-(2-((2-(2,6-dioxopiperidin-3-yl)-1,3-dioxoisoindolin-4-yl)oxo)acetamido)butyl)-7-(2-(4-fluoro-2,6-dimethylphenoxy)-5-(2-hydroxyprop-2-yl)phenyl)-5-methyl-4-oxo-4,5-dihydro-1H-pyrrolo[3,2-c]pyridine-2-amide]
IC50 (MV4-11 cells): < 1.5 nM

Compound: Cc1cc(F)cc(C)c1Oc1ccc(C(C)(C)O)cc1-c1cn(C)c(=O)c2cc(C(=O)NCCCOCCOCCOCCCNc3cccc4c3C(=O)N(C3CCC(=O)NC3=O)C4=O)[nH]c12 (centres unmarked) [Embodiment 6, N-(3-(2-(2-(3-((2-(2,6-dioxopiperidin-3-yl)-1,3-dioxoisoindolin-4-yl)amino)propoxy)ethoxy)ethoxy)propyl)-7-(2-(4-fluoro-2,6-dimethylphenoxy)-5-(2-hydroxyprop-2-yl)phenyl)-5-methyl-4-oxo-4,5-dihydro-1H-pyrrole[3,2-c]pyridine-2-amide]
IC50 (MV4-11 cells): 10.2 nM

Compound: COCCNC(=O)c1cc2c(=O)n(C)cc(-c3cc(C(C)(C)O)ccc3Oc3c(C)cc(F)cc3C)c2[nH]1 [Embodiment 9, 7-(2-(4-fluoro-2,6-dimethylphenoxy)-5-(2-hydroxyprop-2-yl)phenyl)-N-(2-methoxyethyl)-5-methyl-4-oxo-4,5-dihydro-1H-pyrrolo[3,2-c]pyridine-2-amide]
IC50 (MV4-11 cells): 19.8 nM
IC50 (BRD4-BD2): 0.51 nM
IC50 (BRD4-BD1): 37 nM

Compound: CCNC(=O)c1cc2c(=O)n(C)cc(-c3cc(S(C)(=O)=O)cc4c3OC(C)(C)C(=O)N4C)c2[nH]1 [Embodiment 2, N-ethyl-5-methyl-4-oxo-7-(2,2,4-trimethyl-6-(methylsulfonyl)-3-oxo-3,4-dihydro-2H-benzo[b][1,4]oxazin-8-yl)-4,5-dihydro-1H-pyrrolo[3,2-c]pyridine-2-amide]
IC50 (MV4-11 cells): 64 nM
IC50 (BRD4-BD2): 1.2 nM
IC50 (BRD4-BD1): 36 nM

Compound: Cc1cc(F)cc(C)c1Oc1ccc(C(C)(C)O)cc1-c1cn(C)c(=O)c2cc(C(=O)NCCCC#Cc3cccc4c3CN(C3CCC(=O)NC3=O)C4=O)[nH]c12 (centres unmarked) [Embodiment 3, N-(5-(2-(2,6-dioxopiperidin-3-yl)-1-oxoisoindolin-4-yl)pent-4-yn-1-yl)-7-(2-(4-fluoro-2,6-dimethylphenoxy)-5-(2-hydroxyprop-2-yl)phenyl)-5-methyl-4-oxo-4,5-dihydro-1H-pyrrolo[3,2-c]pyridine-2-amide]
IC50 (MV4-11 cells): < 1.5 nM

More lines, now with the values ahead:

IC50 (MV4-11 cells): 4.8 nM
IC50 (BRD4-BD2): < 0.51 nM
IC50 (BRD4-BD1): 98 nM
Compound: Cc1cc(F)cc(C)c1Oc1ccc(C(C)(C)O)cc1-c1cn(C)c(=O)c2cc(C(=O)NC(CF)CF)[nH]c12 [Embodiment 20, N-(1,3-difluoropropyl-2-yl)-7-(2-(4-fluoro-2,6-dimethylphenoxy)-5-(2-hydroxyprop-2-yl)phenyl)-5-methyl-4-oxo-4,5-dihydro-1H-pyrrolo[3,2-c]pyridine-2-amide]

IC50 (MV4-11 cells): 12.7 nM
IC50 (BRD4-BD2): < 0.5 nM
IC50 (BRD4-BD1): 50 nM
Compound: Cc1cc(F)cc(C)c1Oc1ccc(C(C)(C)O)cc1-c1cn(C)c(=O)c2cc(C(=O)NCC3CC3)[nH]c12 [Embodiment 12, N-(cyclopropylmethyl)-7-(2-(4-fluoro-2,6-dimethylphenoxy)-5-(2-hydroxyprop-2-yl)phenyl)-5-methyl-4-oxo-4,5-dihydro-1H-pyrrolo[3,2-c]pyridine-2-amide]

IC50 (MV4-11 cells): 33.3 nM
IC50 (BRD4-BD2): < 0.5 nM
IC50 (BRD4-BD1): 81 nM
Compound: Cc1cc(F)cc(C)c1Oc1ccc(C(C)(C)O)cc1-c1cn(C)c(=O)c2cc(C(=O)NCC#N)[nH]c12 [Embodiment 15, N-(cyanomethyl)-7-(2-(4-fluoro-2,6-dimethylphenoxy)-5-(2-hydroxyprop-2-yl)phenyl)-5-methyl-4-oxo-4,5-dihydro-1H-pyrrolo[3,2-c] pyridine-2-amide]

IC50 (MV4-11 cells): 31.3 nM
IC50 (BRD4-BD2): < 0.5 nM
IC50 (BRD4-BD1): 219 nM
Compound: Cc1cc(F)cc(C)c1Oc1ccc(C(C)(C)O)cc1-c1cn(C)c(=O)c2cc(C(=O)NCC(F)(F)F)[nH]c12 [Embodiment 14, 7-(2-(4-fluoro-2,6-dimethylphenoxy)-5-(2-hydroxyprop-2-yl)phenyl)-5-methyl-4-oxo-N-(2,2,2-trifluoroethyl)-4,5-dihydro-1H-pyrrolo[3,2-c]pyridine-2-amide]

IC50 (MV4-11 cells): 19.8 nM
IC50 (BRD4-BD2): 0.69 nM
IC50 (BRD4-BD1): 58 nM
Compound: Cc1cc(F)cc(C)c1Oc1ccc(C(C)(C)O)cc1-c1cn(C)c(=O)c2cc(C(=O)NCCS(C)(=O)=O)[nH]c12 [Embodiment 10, 7-(2-(4-fluoro-2,6-dimethylphenoxy)-5-(2-hydroxyprop-2-yl)phenyl)-N-(2-methylsulfonyl)-4-oxo-4,5-dihydro-1H-pyrrolo pyridine-2-amide]

IC50 (MV4-11 cells): 6.6 nM
IC50 (BRD4-BD2): < 0.5 nM
IC50 (BRD4-BD1): 79 nM
Compound: Cc1cc(F)cc(C)c1Oc1ccc(C(C)(C)O)cc1-c1cn(C)c(=O)c2cc(C(=O)NC(C)C)[nH]c12 [Embodiment 13, 7-(2-(4-fluoro-2,6-dimethylphenoxy)-5-(2-hydroxyprop-2-yl)phenyl)-N-isopropyl-5-methyl-4-oxo-4,5-dihydro-1H-pyrrolo[3,2-c]pyridine-2-amide]

IC50 (MV4-11 cells): 147 nM
IC50 (BRD4-BD2): 2.8 nM
IC50 (BRD4-BD1): 292 nM
Compound: Cc1cc(F)cc(C)c1Oc1ccc(C(C)(C)O)cc1-c1cn(C)c(=O)c2cc(C(=O)N3CC(F)(F)C3)[nH]c12 [Embodiment 19, 2-(3,3-difluoroazetidine-1-carbonyl)-7-(2-(4-fluoro-2,6-dimethylphenoxy)-5-(2-hydroxyprop-2-yl)phenyl)-5-methyl-1,5-dihydro-4H-pyrrolo[3,2-c]pyridin-4-one]

IC50 (MV4-11 cells): 248 nM
IC50 (BRD4-BD2): 7.4 nM
IC50 (BRD4-BD1): 233 nM
Compound: Cc1cc(F)cc(C)c1Oc1ccc(C(C)(C)O)cc1-c1cn(C)c(=O)c2cc(C(=O)N3CCC3)[nH]c12 [Embodiment 17, 2-(azetidine-1-carbonyl)-7-(2-(4-fluoro-2,6-dimethylphenoxy)-5-(2-hydroxyprop-2-yl)phenyl)-5-methyl-1,5-dihydro-4H-pyrrolo[3,2-c] pyridin-4-one]

IC50 (MV4-11 cells): 7.95 nM
IC50 (BRD4-BD2): < 0.5 nM
IC50 (BRD4-BD1): 93 nM
Compound: Cc1cc(F)cc(C)c1Oc1ccc(C(C)(C)O)cc1-c1cn(C)c(=O)c2cc(C(=O)NC3CC3)[nH]c12 [Embodiment 16, N-cyclopropyl-7-(2-(4-fluoro-2,6-dimethylphenoxy)-5-(2-hydroxyprop-2-yl)phenyl)-5-methyl-4-oxo-4,5-dihydro-1H-pyrrolo[3,2-c]pyridine-2-amide]

— patent US12459939B2 (SHANGHAI RINGENE BIOPHARMA CO., LTD., priority 2019, dated 2025)
